Measured values taken from US20240122975A1, “IN VITRO METHODS AND COMPOSITIONS FOR ENHANCING THE ACTIVATION OF DENDRITIC CELLS AND T CELLS, AND FOR INDUCING A TH-1 IMMUNE RESPONSE” (Northwest Biotherapeutics, Inc., priority 2019, published 2024).

System: Immature cryopreserved C57BL/6 and BALB/c DCs
Assay: Luminex xMAP cytokine production by cryopreserved murine immature DCs primed with TLR agonist then oxPAPC or PGPC (Example 5)
Format: cell-based, C57BL/6 and BALB/c mice
Conditions: TLR agonist stimulated murine DCs; increasing concentrations of lipid (1-90 μg/ml, 48 hours)
Method: Immature cryopreserved C57BL/6 and BALB/c DCs (Cellero) were rapidly thawed in a water bath at 37° C. and the cells were resuspended in 10 times the volume of RPMI 1640/10% FBS/penicillin/streptomycin/L-glutamine/2-ME. Cells were washed twice using complete media. Thawed cells were plated in triplicate at 2×10^5 cells/well in a 96-well flat bottom TC plate. DCs were primed with 1 μg/ml of LPS (Sigma Aldrich), 1:400 dilution of hBCG (Organon Teknika/Cognate), 1 μg/ml of R848 (Sigma Aldrich), 1 μg/ml Pam2 (Invivogen), 1 μg/ml Pam3 (Invivogen), and 25 μg/ml of Poly I:C HMW (“high molecular weight”; Invivogen) for 3 hrs. Titrated concentrations of oxPAPC (Invivogen) or PGPC (Cayman)—at 1 μg/ml, 3 μg/ml, 10 μg/ml, 30 μg/ml, and 90 μg/ml—were added to appropriate samples and cultured for an additional 48 hours. Cytokine production in 100 μl of culture medium was assessed by a mouse cytokine and chemokine panel, across 26 protein targets (IFNγ; IL12 p70; IL13; IL1β; IL2; IL4; IL5; IL6; TNFα; GM-CSF; IL18; IL10; IL17A; IL22; IL23; IL27; IL9; GROα; IP10; MCP1; MCP3; MIP1α; MIP1β; MIP2; RANTES; and Eotaxin), using Luminex xMAP® multiplex technology using the manufacturer's. The xMAP system is an immunoassay system that can simultaneously detect many targets in a single sample.

## CCCCCCCCCCCCCCCC(=O)OCC(COP(=O)([O-])OCC[N+](C)(C)C)OC(=O)CCCC(=O)O (stereo not shown) [PGPC, 1-palmitoyl-2-glutaryl phosphatidylcholine]
  production of IL-1β: upregulated production
